Key:
[1] = tested on: G6PI peptide induced arthritis in DBA/1 mice; assay: G6PI peptide induced arthritis, transfer of monocytes from naive mice pre-incubated with MCTR3; assay type: in vivo, mouse; settings: monocytes incubated with 10 μM RG108 for 15 min before 1 nM MCTR3
Protocol: FIG. 3: MCTR3 reprograms monocyte responses to reduce inflammation and repair inflamed joints. (A-B) Antigen induced arthritis was initiated by administering G6PI peptide (10 μg/mouse) in CFA via intradermal injection to DBA/1 mice. After 25 days mice were treated with 0.5×10^6 monocytes from naive mice that had been pre-incubated with vehicle (PBS+0.1% EtOH) or 1 nM MCTR3 for 90 min at 37° C. via i.v. injection. Disease course was monitored daily by assessing A) clinical scores and B) oedema. Results are mean±SEM and expressed as percent change from day of treatment n=5 per group from two separate experiments. Results are mean±SEM. Statistical differences were calculated using a Two-way ANOVA.
FIG. 11: DNA methyltransferase inhibition prevents MCTR3 reprogramming of protective monocyte responses. […] Disease course was assessed by evaluating A) clinical scores and B) oedema relative to the day of treatment. Results are mean±SEM and expressed as percentage change from day of treatment. n=5 per group and statistics were calculated using a Two-way ANOVA. […]

arthritic femur heads = assay: Organ culture of arthritic femur heads with monocyte-derived macrophages, Safranin-O staining; assay type: cell-based, mouse; settings: monocytes incubated with 10 μM RG108 for 45 min before 1 nM MCTR3
Protocol: FIG. 6: Arg-1 mediates the anti-inflammatory and cartilage protective activities of MCTR3-trained monocytes. (A,B) Femur heads and bone marrow-derived monocytes were collected 5 days following the induction of arthritis in C57BL/6 mice. Femur heads were incubated in serum free DMEM high glucose containing 1% insulin-transferrin-selenium for 48 hours and then in DMEM containing 10% FBS and 10 ng/ml IL-1B for 4 days. Monocytes were incubated with vehicle (PBS+0.1% EtOH) or 1 nM MCTR3 for 24 hours, then differentiated to monocyte-derived macrophages. Two days after the initiation of differentiation, cells were transfected with control siRNA or siRNA against Arg-1. […] Tissues were then collected and glycosaminoglycan content was evaluated using Safranin-O staining. (A) Representative images and (B) quantitation of Safranin-O staining. […] Statistical differences were evaluated using Wilcoxon signed rank test when assessing for differences vs Vehicle group and using one-way ANOVA and Kruskal Wallis post hoc test when evaluating differences vs MCTR3 treated group.
FIG. 12: DNMT enzyme inhibition reverses the ability of MCTR3 to upregulate Arg-1 in MDM and the cartilage protective activities of MCTR3-trained monocytes. […] The proteoglycan concentrations in the femur heads were assessed using Safranin O staining. […] Statistical differences were evaluated using one-sample Wilcoxon signed rank test. […]

## O=C(O)C(Cc1c[nH]c2ccccc12)N1C(=O)c2ccccc2C1=O (centres unmarked) [RG108]
[1]
  protective actions of MCTR3 (ability of reprogrammed monocytes to regulate joint inflammation): abolished
Arthritic femur heads
  cartilage protective activities of MCTR3-trained monocytes: reverses

Source: US20240269170A1, “Treatment of Inflammatory Conditions or Diseases” (Queen Mary University of London, priority 2021, published 2024)
